Test results reported in US20040029860A1, “Anti-proliferative drugs” (priority 2000, published 2004).
“Also recorded” adds a separate entry of the source. Read-outs that look alike come from different tables or passages of the source.

Experiments:
[1] = tested on: mouse Lewis lung carcinoma (3LL); assay: in vivo effect on Lewis lung carcinoma (3LL) in mice; conditions: 3LL inoculated C57 mice, i.p. daily, thioridazine 15 mg/kg, others 30 mg/kg; for lungs weight / tumor size compared to control group: FIG. 5
Description: Female C57 black mice aged 4 weeks were used in order to evaluate the in vivo effect of cyclic psychotropic agents on tumor cells. In particular, animals were divided into 5 groups (6-8 mice each). Animals were inoculated with mouse Lewis lung carcinoma (3LL, 0.5 million each) by i.v. injection to the tail vein and then treated by i.p. injection daily for 3 weeks with the following different agents
(5) Paroxetine (30 mg/kg).
During the treatment period animals were inspected daily and their body weight registered twice a week. […] After the four weeks of treatment the mice were sacrificed and their lungs dissected and weighted.

[2] = tested on: doxorubicin resistant neuroblastoma cells (SH-SY5T); assay: sensitization to doxorubicin, doxorubicin resistant neuroblastoma SH-SY5T; assay type: cell-based, human; conditions: dose dependant, FIG. 6E, 6F
HaCat keratinocytes = assay: keratinocyte viability, Neutral red, HaCat; assay type: cell-based, human; conditions: 5-100 μM, 24 hr, Neutral red; FIG. 13A, 15A
Description: (§1) The drugs were administered at concentrations within the range of 5-100 μM and cell viability was measured 24 hr post-administration by Neutral red staining. The efficiency of the agents against viability of the cell lines was evaluated also by comparison with two commonly used anticancer agents (Doxorubicin and 5-fluorouracil (5-FU)) at equimolar concentrations.

HaCat I5 keratinocytes = assay: keratinocyte viability, Neutral red, HaCat I5; assay type: cell-based, human; conditions: 5-100 μM, 24 hr, Neutral red; FIG. 13B, 15B
Description: as §1

p53 mutant = p53 mutant expression, western blotting in glioma C6; assay type: cell-based, rat; conditions: 30 and 60 μM, FIG. 8
B16 melanoma cells [3] = assay type: in vivo
Description: Male C57 black mice aged 5-7 weeks were used. Animals were inoculated with B16 melanoma cells by iv. injection (200,000 cells/mouse) to the tail vein. […]. Body weight was recorded three times weekly during the experiment and survival was registered. Animals were sacrificed 24 days after cell inoculation, and lungs were dissected and weighted.

B16 melanoma = conditions: for mean number of metastases: controls 53.8+; for mean lungs weight: day 27, controls 685; for mice with confluent lungs: controls 6/7
Description: Female C57 mice aged 5-7 weeks were used, animals were divided into 3 treatment groups:
1. Controls: B16 inoculated vehicle treated;
Half of the animals were sacrificed after 21 days and half after 27 days. Lungs weight and number of metastases were recorded.

Melanoma B16 cells = tested on: Melanoma B16 cells
Description: Animals were divided into three groups:
1. Controls B16 with no therapy;
Water consumption was registered daily, and calculation of dose was performed according to the mean consumed water. Body weight was registered 3 time/week.

HaCat cells = assay: DNA fragmentation, flow cytometry, HaCat; assay type: cell-based, human; conditions: basal 29%
Description: (§2) DNA fragmentation was determined by flow cytometric analysis of propidium iodide-stained cells according to the method of Vindelov et al Vindelov, L. L., et al. Cytometry.

HaCat I5 cells = assay: DNA fragmentation, flow cytometry, HaCat I5; assay type: cell-based, human; conditions: basal 10.23%
Description: as §2

B16 melanoma cells [4] = assay: sensitization to doxorubicin, B16 melanoma cells; assay type: cell-based, mouse; conditions: clomipramine 10, […], 20 μM with doxorubicin 1, 2.5, 5 μM; FIG. 6B
MDR B16 melanoma = assay: sensitization to doxorubicin, MDR B16 melanoma; assay type: cell-based, mouse; conditions: dose dependant, FIG. 6C

CNCCC(Oc1ccc(C(F)(F)F)cc1)c1ccccc1 (stereo not shown) [Fluoxetine]
survival rate during four weeks of treatment [1]: 5/7 | lungs weight / tumor size compared to control group [1]: effective in reducing tumor size | potentiation of doxorubicin toxicity (in words) [2]: potentiate the toxicity of doxorubicin | cell viability HaCat (in words) (HaCat keratinocytes): effective in reducing cell viability | cell viability HaCat I5 (in words) (HaCat I5 keratinocytes): effective in reducing cell viability

CSc1ccc2c(c1)N(CCC1CCCCN1C)c1ccccc1S2 (stereo not shown) [Thioridazine]
survival rate during four weeks of treatment [1]: 7/7 | lungs weight / tumor size compared to control group [1]: effective in reducing tumor size | mean decrease in expression of p53 mutant (p53 mutant): 75% | survival rate (B16 melanoma cells [3]; 2.5 mg/kg i.p. 3 times/week): 4/5 | survival rate (B16 melanoma cells [3]; 5 mg/kg i.p. 3 times/week): 3/4 | survival rate (B16 melanoma cells [3]; 10 mg/kg i.p. 3 times/week): 5/5 | lungs weight (B16 melanoma cells [3]; 20 mg/kg compared to 2.5 mg/kg (p=0.05), 24 days after inoculation): significant decrease | survival rate (B16 melanoma cells [3]; 20 mg/kg i.p. 3 times/week): 5/5 | mean number of metastases (B16 melanoma; 10 mg/kg i.p. x3/week, after 21 days): 46.1 | mean lungs weight (B16 melanoma; 10 mg/kg): 520 mg | mice with confluent lungs (B16 melanoma; 10 mg/kg): 6/7 | mean number of metastases (B16 melanoma; […] mg/kg i.p. x3/week, after 21 days): 28.5 | mean lungs weight (B16 melanoma; […] mg/kg): 335 mg | mice with confluent lungs (B16 melanoma; […] mg/kg): 2/7 | lungs weight (B16 melanoma; after 21 days, vs controls): No difference | effective doses (B16 melanoma; parenteral route, B16 melanoma in mice): 15 to 20 mg/kg | toxic concentrations (B16 melanoma; parenteral route, mice): higher than 30 mg/kg | mice with big or conglomerate metastases (Melanoma B16 cells; 20-30 mg/kg per day, after 24 days, same rate as controls): 1/7 | animals with confluent metastases (Melanoma B16 cells; 27 and 30 days, controls 6/11): 0/21 | big or confluent metastases (Melanoma B16 cells; 30-40 mg/kg per day, after 24 days): No big or confluent metastases were found | spontaneous death during experiment (Melanoma B16 cells; controls 5/18): 2/36 | body weight vs healthy and B16 controls (Melanoma B16 cells; in drinking water): No difference | cell viability HaCat (in words) (HaCat keratinocytes): effective in reducing cell viability; also recorded: responded | cell viability HaCat I5 (in words) (HaCat I5 keratinocytes): effective in reducing cell viability; also recorded: responded | rate of DNA fragmentation (HaCat cells; 25 μM): 82.8% | rate of DNA fragmentation (HaCat cells; 50 μM): 89.3% | apoptosis (DNA fragmentation) (HaCat I5 cells; 25 μM): 74.5% | apoptosis (DNA fragmentation) (HaCat I5 cells; 50 μM): 76.6%

CN(C)CCCN1c2ccccc2CCc2ccc(Cl)cc21 [Clomipramine]
survival rate during four weeks of treatment [1]: 7/7 | lungs weight / tumor size compared to control group [1]: effective in reducing tumor size | cell viability in combination with doxorubicin (B16 melanoma cells [4]): less than 15 % from control | cell viability in combination with doxorubicin (in words) (MDR B16 melanoma): significantly decreased | potentiation of doxorubicin toxicity (in words) [2]: potentiate the toxicity of doxorubicin | cell viability HaCat (in words) (HaCat keratinocytes): effective in reducing cell viability | cell viability HaCat I5 (in words) (HaCat I5 keratinocytes): effective in reducing cell viability
